Key:
Gli-Luc/MEF cells = test: Gli-Luc/MEF assay; format: cell-based, mouse; details: Mus musculus, MEF; Shh-stimulated luciferase, 48 hours
Protocol: The Gli-Luc/MEF cells obtained from Gli-Luc transgenic mice contain a luciferase reporter gene under the control of the Gli response element. Luciferase activity stimulated with Sonic hedgehog ligand was inhibited by Smo inhibitors, and IC50 was subsequently calculated.
Plates were incubated at 37° C. and 5% CO2 overnight. On day two, cells were dosed with test compounds at a final concentration ranging from 3 μM to 50 μM at a 3-time series dilution. Immediately after dosing cells with compounds, recombinant mouse sonic hedgehog (Shh, R&D Systems 464-SH) was added to a final concentration of 2 μg/mL. The cells were incubated with compounds and Shh for 48 hours at 37° C. and 5% CO2. Luciferase assays were conducted on Day 4 using the Bright-Glo Luciferase assay system (Promega E2620) according to Promega's protocol. Briefly, Bright-Glo luciferase reagent was made up and 25 μL were added to each well of the 384-well plate containing media. Plates were kept at room temperature for 5 minutes, and then read on an Envision Luminescence plate reader (Perkin-Elmer). IC50 of the inhibition was calculated by using GraphPad Prism.

human Smo = human Smo (Homo sapiens (Human), UniProt Q99835); test: Smo radioligand competition binding assay; details: for inhibition at 0.05 µM: 0.05 μM test compound, read-out: Smo % inh. @ 0.05 μM
Protocol: Smo Radioligand Competition Binding Assay
Membranes were prepared from a stable cell line created in HEK293FlpIn-TetR cells (Invitrogen) using Flp recombinase-mediated insertion of the pSecTag-FRT/V5-His vector containing a cDNA encoding amino acids […] of human Smo fused to the murine Igk leader sequence to produce a cell surface expressed Smo 181-781 protein. Hygromycin-resistant clones were obtained and stained for LacZ expression (no expression indicates a correct knock-in of fusion cDNA). LacZ-negative cells were analyzed for binding tritiated Smo antagonists. For membrane preparation, the HEK293 cells expressing Smo 181-781 were grown to 90% confluence in nine to fifteen 245 mm×245 mm×22 mm dishes, washed with Dulbecco's PBS (15 mL per dish) and harvested via scraping in 10 mL of DPBS. The cells were collected and centrifuged at 1500 rpm (400×g) for 10 min at 4° C. The cell pellets were re-suspended in 40 mL of cold DPBS and washed by centrifugation at 2300 rpm (950×g max) for 10 minutes at 4° C. The supernatant was aspirated and the cell pellet was snap frozen in a methanol/dry ice bath and stored at −70° C. For membrane preparation, 15 mL of Membrane Preparation Buffer (50 mM Tris-HCl pH 7.5, 250 mM sucrose with Roche complete protease cocktail tablets) was added to the tube containing the cell pellet, then cells are rapidly thawed, and homogenized using an Ultra-Turrax T8 (IKA Labortechnik) set on “6” for 15 seconds for 5-6 times in icy water bath. This homogenate was diluted up to 50 mL using Membrane Preparation Buffer and centrifuged at 35,000 rpm in a Beckman Ti45 rotor (140,000×g) for 35 minutes at 4° C. followed by aspiration of the supernatant and re-suspension of the pellet in 5 mL of Assay Buffer (50 mM Tris-HCl pH 7.5, 100 mM NaCl, 25 mM MgCl2, 1 mM EDTA, and 0.1% protease free bovine serum albumin). The re-suspended pellet was then homogenized in a glass tissue grinder. The re-suspended membranes were aliquoted (0.5 mL aliquots), snap frozen and stored at −70° C. Total protein in the membrane preparation was determined using the Pierce BCA protein assay (Pierce Chemical).
For the binding competition assay, 100 μL of Assay Buffer was added to all the wells of a 96 well GF/B filter plate (Millipore MultiScreen-HTS-FB cat# MSFBN6B50) for 10 minutes to pre-wet the filter prior to evacuation of the buffer (8 inches Hg for 8 seconds). To the pre-wet wells is added: 20 μL of Assay Buffer, 10 μL diluted test agent, 20 μL of a tritiated Smo antagonist (15 nM stock solution), and 50 μL of membrane preparation (40 μg total protein per well). The plates are sealed and mixed at room temperature for 5 min, incubated at room temperature for 2 hours, then washed 5 times with 100 μL/each of wash buffer and vacuum dried for 8 seconds at 8 inches Hg. The plate is then dried for one hour in a 60° C. oven prior to the addition of 45 μL of Microscint 20 (Packard, #6013621) to each well and incubation at RT for 30 minutes to 1 hour. The plate is counted in a TopCount scintillation counter (Perkin Elmer).
Data analysis uses Excel for % Inhibition and Graphpad Prism for IC50 calculation. Total binding (TB, in the absence of inhibitors)=average of tritiated Smo antagonist 3 nM+Smo membrane (40 μg/wells (approx 5000-7000 CPM)). Non-specific binding (NSB)=average of tritiated Smo antagonist (3 nM)+cold Smo antagonist (30 μM)+Smo membrane (approx 600-1200 CPM). Specific binding (SB)=(total binding−non-specific binding). % Inhibition=[1−(compound Specific binding/control Specific binding)]×100%. IC50 is calculated by fitting the data to the four parameter sigmoidal dose-response curve (variable slope) Y=Bottom+(Top-Bottom)/(1+10^((LogEC50−X)*HillSlope)). X is the logarithm of the inhibitor concentration. Y is the response; Y starts at Bottom and goes to Top with a sigmoid shape.

Chain of human Smo (Q99835 181-787): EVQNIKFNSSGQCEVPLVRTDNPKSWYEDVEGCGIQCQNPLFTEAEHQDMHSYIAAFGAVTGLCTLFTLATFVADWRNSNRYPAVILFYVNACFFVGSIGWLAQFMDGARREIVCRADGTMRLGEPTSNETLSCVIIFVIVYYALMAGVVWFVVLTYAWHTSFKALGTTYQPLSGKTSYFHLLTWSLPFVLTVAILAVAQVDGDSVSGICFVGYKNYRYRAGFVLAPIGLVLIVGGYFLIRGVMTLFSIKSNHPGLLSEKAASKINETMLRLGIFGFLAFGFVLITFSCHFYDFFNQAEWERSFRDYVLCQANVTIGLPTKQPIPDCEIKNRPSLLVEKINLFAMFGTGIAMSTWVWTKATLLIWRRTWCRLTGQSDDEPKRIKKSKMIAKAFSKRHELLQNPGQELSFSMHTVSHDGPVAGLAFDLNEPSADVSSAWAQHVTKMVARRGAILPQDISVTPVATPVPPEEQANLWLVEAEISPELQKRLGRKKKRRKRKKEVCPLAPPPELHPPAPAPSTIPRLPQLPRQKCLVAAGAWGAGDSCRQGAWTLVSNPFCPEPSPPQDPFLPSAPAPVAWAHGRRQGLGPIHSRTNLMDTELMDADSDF

With `Cc1cccnc1-c1cc(N2CCC(C(=O)N[C@H]3CC[C@H](O)CC3)CC2)ncc1Cl` (stereo in doubt) [Example A-71, 1-(5′-chloro-3-methyl-2,4′-bipyridin-2′-yl)-N-(trans-4-hydroxycyclohexyl)piperidine-4-carboxamide] the IC50 (Gli-Luc/MEF cells) was 39.4 nM, the IC50 (human Smo) was 72.9 nM and the inhibition at 0.05 µM (human Smo) was 85.7%.

`CS(=O)(=O)NC1CCN(c2cc(-c3ccccn3)c(Cl)cn2)CC1` [Example A-7, N-[1-(5′-chloro-2,4′-bipyridin-2′-yl)piperidin-4-yl]methanesulfonamide] was tested, and the inhibition at 0.05 µM (human Smo) was 45%.

`Cc1cccnc1-c1cc(N2CCC(NS(C)(=O)=O)CC2)ncc1Cl` [Example A-8, N-[1-(5′-chloro-3-methyl-2,4′-bipyridin-2′-yl)piperidin-4-yl]methanesulfonamide] showed an IC50 (Gli-Luc/MEF cells) of 39.2 nM, an IC50 (human Smo) of 18.7 nM and an inhibition at 0.05 µM (human Smo) of 92%.

`Cc1ccc(-c2cc(N3CCC(NS(C)(=O)=O)CC3)ncc2Cl)nc1` [Example A-9, N-[1-(5′-chloro-5-methyl-2,4′-bipyridin-2′-yl)piperidin-4-yl]methanesulfonamide] was tested, and the IC50 (Gli-Luc/MEF cells) was 226 nM, the IC50 (human Smo) was 75 nM and the inhibition at 0.05 µM (human Smo) was 65%.

In the case of `CS(=O)(=O)NC1CCN(c2cc(-c3ncccc3Cl)c(Cl)cn2)CC1` [Example A-10, N-[1-(3,5′-dichloro-2,4′-bipyridin-2′-yl)piperidin-4-yl]methanesulfonamide], the IC50 (Gli-Luc/MEF cells) is reported as 209 nM, the IC50 (human Smo) is reported as 32.1 nM and the inhibition at 0.05 µM (human Smo) is reported as 75%.

`CS(=O)(=O)NC1CCN(c2cc(-c3ccc(Cl)cn3)c(Cl)cn2)CC1` [Example A-11, N-[1-(5,5′-dichloro-2,4′-bipyridin-2′-yl)piperidin-4-yl]methanesulfonamide] gave an IC50 (Gli-Luc/MEF cells) of 152 nM, an IC50 (human Smo) of 32.9 nM and an inhibition at 0.05 µM (human Smo) of 78%.

With `CS(=O)(=O)NC1CCN(c2cc(-c3ncc(Cl)cc3Cl)c(Cl)cn2)CC1` [Example A-12, N-[1-(3,5,5′-trichloro-2,4′-bipyridin-2′-yl)piperidin-4-yl]methanesulfonamide] the IC50 (Gli-Luc/MEF cells) was 53.4 nM, the IC50 (human Smo) was 18.8 nM and the inhibition at 0.05 µM (human Smo) was 88%.

With `CS(=O)(=O)NC1CCN(c2cc(-c3ccc(C(F)(F)F)cn3)c(Cl)cn2)CC1` [Example A-13, N-{1-[5′-chloro-5-(trifluoromethyl)-2,4′-bipyridin-2′-yl]piperidin-4-yl}methanesulfonamide] the IC50 (Gli-Luc/MEF cells) was 404 nM, the IC50 (human Smo) was 110 nM and the inhibition at 0.05 µM (human Smo) was 56%.

With `Cc1cnc(-c2cc(N3CCC(NS(C)(=O)=O)CC3)ncc2Cl)c(C)c1` [Example A-14, N-[1-(5′-chloro-3,5-dimethyl-2,4′-bipyridin-2′-yl)piperidin-4-yl]methanesulfonamide] the IC50 (Gli-Luc/MEF cells) was 16.4 nM, the IC50 (human Smo) was 6.4 nM and the inhibition at 0.05 µM (human Smo) was 95%.

Work on `CS(=O)(=O)NC1CCN(c2ccc(Cl)c(-c3ccccn3)n2)CC1` [Example A-15, N-[1-(3-chloro-2,2′-bipyridin-6-yl)piperidin-4-yl]methanesulfonamide] yielded an IC50 (Gli-Luc/MEF cells) of 78.5 nM, an IC50 (human Smo) of 34.3 nM and an inhibition at 0.05 µM (human Smo) of 83%.

Molecule `Cc1cccnc1-c1nc(N2CCC(NS(C)(=O)=O)CC2)ccc1Cl` [Example A-16, N-[1-(3-chloro-3′-methyl-2,2′-bipyridin-6-yl)piperidin-4-yl]methanesulfonamide] has an IC50 (Gli-Luc/MEF cells) of 14.5 nM, an IC50 (human Smo) of 20.6 nM and an inhibition at 0.05 µM (human Smo) of 97.8%.

`CS(=O)(=O)NC1CCN(c2cc(-c3ncc(Cl)cc3F)c(Cl)cn2)CC1` [Example A-17, N-[1-(5,5′-dichloro-3-fluoro-2,4′-bipyridin-2′-yl)piperidin-4-yl]methanesulfonamide] gave an IC50 (Gli-Luc/MEF cells) of 60 nM, an IC50 (human Smo) of 511 nM and an inhibition at 0.05 µM (human Smo) of 63%.

`CS(=O)(=O)NC1CCN(c2cc(-c3ccc(F)cn3)c(Cl)cn2)CC1` [Example A-18, N-[1-(5′-chloro-5-fluoro-2,4′-bipyridin-2′-yl)piperidin-4-yl]methanesulfonamide] gave an IC50 (Gli-Luc/MEF cells) of 82 nM, an IC50 (human Smo) of 343 nM and an inhibition at 0.05 µM (human Smo) of 58.9%.

Molecule `Cc1cccnc1-c1cc(N2CCN(c3ccc(C#N)cn3)CC2)ncc1Cl` [Example A-19, 6-[4-(5′-chloro-3-methyl-2,4′-bipyridin-2′-yl)piperazin-1-yl]nicatinonitrile] has an IC50 (Gli-Luc/MEF cells) of 10.1 nM, an IC50 (human Smo) of 37.5 nM and an inhibition at 0.05 µM (human Smo) of 91.5%.

In the case of `Cc1cccnc1-c1cc(N2CCC3(CC2)CN(C)C(=O)O3)ncc1Cl` [Example A-20, 8-(5′-chloro-3-methyl-2,4′-bipyridin-2′-yl)-3-methyl-1-oxa-3,8-diazaspiro[4.5]decan-2-one], the IC50 (Gli-Luc/MEF cells) is reported as 109 nM, the IC50 (human Smo) is reported as 407 nM and the inhibition at 0.05 µM (human Smo) is reported as 64.6%.

For `Cc1cccnc1-c1cc(N2CCC3(CC2)CNC(=O)O3)ncc1Cl` [Example A-21, 8-(5′-chloro-3-methyl-2,4′-bipyridin-2′-yl)-1-oxa-3,8-diazaspiro[4.5]decan-2-one], the IC50 (Gli-Luc/MEF cells) was 114 nM, the IC50 (human Smo) was 297 nM and the inhibition at 0.05 µM (human Smo) was 65.9%.

`Cc1cccnc1-c1cc(N2CCN(S(C)(=O)=O)CC2)ncc1Cl` [Example A-22, 5′-chloro-3-methyl-2′-[4-(methylsulfonyl)piperazin-1-yl]-2,4′-bipyridine] gave an IC50 (Gli-Luc/MEF cells) of 42 nM, an IC50 (human Smo) of 110 nM and an inhibition at 0.05 µM (human Smo) of 81.5%.

For `CC(=O)N1CCN(c2cc(-c3ncccc3C)c(Cl)cn2)CC1` [Example A-23, 2′-(4-acetylpiperazin-1-yl)-5′-chloro-3-methyl-2,4′-bipyridine], the IC50 (Gli-Luc/MEF cells) was 194 nM, the IC50 (human Smo) was 417 nM and the inhibition at 0.05 µM (human Smo) was 59.5%.

`COC(=O)N1CCN(c2cc(-c3ncccc3C)c(Cl)cn2)CC1` [Example A-24, methyl 4-(5′-chloro-3-methyl-2,4′-bipyridin-2′-yl)piperazine-1-carboxylate] gave an IC50 (Gli-Luc/MEF cells) of 126 nM, an IC50 (human Smo) of 243 nM and an inhibition at 0.05 µM (human Smo) of 69.3%.

Molecule `Cc1cccnc1-c1cc(N2CCN(C(=O)CO)CC2)ncc1Cl` [Example A-25, 2-[4-(5′-chloro-3-methyl-2,4′-bipyridin-2′-yl)piperazin-1-yl]-2-oxoethanol] has an IC50 (Gli-Luc/MEF cells) of 197 nM, an IC50 (human Smo) of 239 nM and an inhibition at 0.05 µM (human Smo) of 72.1%.

In the case of `CC(=O)N1CCN(c2ncc(Cl)c(-c3ncccc3C)n2)CC1` [Example A-26, 2-(4-acetylpiperazin-1-yl)-5-chloro-4-(3-methylpyridin-2-yl)pyrimidine], the IC50 (Gli-Luc/MEF cells) is reported as 189 nM, the IC50 (human Smo) is reported as 359 nM and the inhibition at 0.05 µM (human Smo) is reported as 69.9%.

Work on `COCCC(=O)NC1CCN(c2cc(-c3ncccc3C)c(Cl)cn2)CC1` [Example A-27, N-[1-(5′-chloro-3-methyl-2,4′-bipyridin-2′-yl)piperidin-4-yl]-3-methoxypropanamide] yielded an IC50 (Gli-Luc/MEF cells) of 21.1 nM, an IC50 (human Smo) of 107 nM and an inhibition at 0.05 µM (human Smo) of 75.7%.

`O=S(=O)(CCO)N1CCN(c2ccc(Cl)c(-c3ccccn3)n2)CC1` [Example A-137, 2-{[4-(3-chloro-2,2′-bipyridin-6-yl)piperazin-1-yl]sulfonyl}ethanol] gave an inhibition at 0.05 µM (human Smo) of 45.8%.

From patent US9056865B2, “Pyridine-2-derivatives as smoothened receptor modulators” (Pfizer Inc., priority 2010, dated 2015)
